{
  "source": "patent US11382904B2",
  "about": "“Therapeutic drug for diseases related to endoplasmic reticulum cell death in corneal endothelium” (KYOTO PREFECTURAL PUBLIC UNIVERSITY CORPORATION, priority 2013, dated 2022)",
  "key": {"[1]": {"tested_on": "corneal endothelial cells with Fuchs' endothelial corneal dystrophy (iFECD)", "test": "Annexin V positive apoptosis cells by flow cytometry, iFECD", "type": "cell-based, human", "conditions": "for TGFβ2-induced increase of annexin V positive apoptotic cells, effect of inhibitor: TGFβ2 plus inhibitor, 24 hours", "description": "(§1) The human corneal endothelial cells (iHCEC) or corneal endothelial cells with Fuchs' endothelial corneal dystrophy (iFECD) prepared in the Preparation Examples were seeded on a culture dish coated with FNC Coating Mix and culture for about 3 days until reaching sub-confluence under the condition of 5% CO2 at 37° C. Furthermore, TGFβ2 and SB431542 were added and the cells were incubated for 24 hours under the condition of 5% CO2 at 37° C. Cells were peeled off with ACCUMAX. Annexin V or PI positive cells were measured by using Annexin V and PI and a flow cytometer (FACS Aria II (BD Biosciences, Franklin Lakes, N.J.)) with MEBCYTO Apoptosis Kit (Annexin V-FITC Kit) 100 test (4700, MEDICAL & BIOLOGICAL LABORATORIES).\nThe human corneal endothelial cells (iHCEC) or corneal endothelial cells with Fuchs' endothelial corneal dystrophy (iFECD) prepared in the Preparation Examples were seeded on a culture dish coated with FNC Coating Mix and culture for about 3 days until reaching sub-confluence under the condition of 5% CO2 at 37° C. Furthermore, TGFβ2, SB431542 and TGFβ signal inhibitor A-83-01 (Wako, Osaka; catalog No: 018-22521), ALK5 inhibitor (Wako catalog No: 012-23021; CAS No. 446859-33-2; 2-(3-(6-methylpyridine-2-yl)-1H-pyrazole-4-yl)-1,5-naphthyridine) were added and the cells were incubated for 24 hours under the condition of 5% CO2 at 37° C. The cells were peeled off with ACCUMAX. Annexin V or PI positive cells were measured by using annexin V and propidium iodide (PI) with a flow cytometer (FACS Aria II (BD Biosciences, Franklin Lakes, N.J.))."}, "[2]": {"tested_on": "corneal endothelial cells with Fuchs' endothelial corneal dystrophy (iFECD)", "type": "cell-based, human", "description": "The human corneal endothelial cells (iHCEC) or corneal endothelial cells with Fuchs' endothelial corneal dystrophy (iFECD) prepared in the Preparation Examples were seeded on a culture dish coated with FNC Coating Mix and cultured for about 3 days until reaching sub-confluence under the condition of 5% CO2 at 37° C. Furthermore, TGFβ2, SB431542 and TG were added and the cells were incubated for 24 hours under the condition of 5% CO2 at 37° C. Cell morphology and apoptosis were then observed under a phase difference microscope."}, "[3]": {"tested_on": "human corneal endothelial cells (iHCEC)", "test": "Annexin V positive apoptosis cells by flow cytometry, iHCEC", "type": "cell-based", "conditions": "after TGFβ stimulation (11.1±0.6% before stimulation)", "description": "Further, it is known as the knowledge of the inventors that PERK phosphorylation and ATF6 cleavage were increased more in iFECD than in iHCEC by TGFβ. In order to investigate the involvement of TGFβ signaling in apoptosis, cells were treated with TGFβ and annexin V positive apoptosis cells were assessed by flow cytometry. […] Meanwhile, it is known that TGFβ increases annexin V positive cells after a stimulation in iFECD relative to the number prior to a TGFβ stimulation (as exemplary data, 19.4±1.4% prior to stimulation and 29.9±1.5% after stimulation, p<0.01). In addition thereto, it is shown that expression of the chaperone GRP78 is elevated. Further, it is shown that the expression of CHOP is elevated and apoptosis is induced by ER stress. […]\nas §1, with “Furthermore, TGFβ2 and SB431542 were added and the cells were incubated for 24 hours under the condition of 5% CO2 at 37° C. Cells were peeled off with ACCUMAX.” left out"}, "iHCEC and iFECD": {"tested_on": "iHCEC and iFECD", "test": "Western blot of ER stress markers after TGFβ2 stimulation", "type": "cell-based, human", "description": "Western blot: Electrophoresis was applied to a protein extracted and obtained in a RIPA buffer with 7.5% polyacrylamide. The isolated protein was transferred onto a PVDF membrane (PALL LIFE SCIENCE (catalog number: EH-2222)). A Tris buffered saline (10 mM Tris-HCl, pH 7.4; 100 mM NaCl) (TBS-T) comprising 0.1% (vol/vol) polyethylene sorbitan monolaurate (Nacalai Tesque, catalog number: 28353-85) complemented with 5% NON FAT DRY MILK (CELL SIGNALING, catalog number: 9999) and a blotted membrane were incubated for 1 hour for a blocking operation. The membrane was immersed in anti-GRP78 antibodies diluted 1000 fold with TBS-T complemented with 5% NON FAT DRY MILK and reacted for 1 hour at room temperature. After washing three times with TBS-T and incubating with a mouse-IgG antibody HRP complex (CELL SIGNALING (catalog number: 7074P2)) and washing, a band illuminated with an ECL-ADVAVCE Western Blotting Detection Kit (GE Healthcare Japan (catalog number: RPN2135V)) was detected.\nCells were stimulated for 24 hours with 10 ng/ml TGFβ2 (R&D SYSTEMS). Further, cells stimulated for 24 hours with 10 μM of thapsigargin (TG; Alomone Laboratories Ltd., Jerusalem, Israel) were used as a positive control of ER stress.\nCells were stimulated with 10 ng/ml TGFβ2 (R&D SYSTEMS). Further, cells stimulated with thapsigargin (TG; Alomone Laboratories Ltd., Jerusalem, Israel) were used as a positive control of ER stress.\nIn the present Example, a Western blot was performed as in Example 2 to investigate the expression of the molecular chaperone GRP78 and CHOP involved with apoptosis due to an ER stress response in order to confirm that a stronger ER stress is elicited by TGF-β in Fuchs' endothelial corneal dystrophy. Further, expression of phosphorylated PERK and ATF6 involved in stress signaling on an endoplasmic reticulum membrane was also examined therewith. A stimulation was applied with 10 ng/ml of TGFβ2 (R&D SYSTEMS). The chronological change was also examined therewith."}, "[4]": {"tested_on": "corneal endothelial cells with Fuchs' endothelial corneal dystrophy (iFECD)", "test": "Aggresome measurement by flow cytometry (ProteoStat Aggresome Detection Kit)", "type": "cell-based, human", "conditions": "TGFβ2 10 ng/ml, 24 hours", "description": "1×10^5 human corneal endothelial cells (iHCEC) or corneal endothelial cells with Fuchs' endothelial corneal dystrophy (iFECD) were seeded onto a 6 well plate coated with an FNC Coating Mix and cultured for about 2 days until reaching sub-confluence under the condition of 5% CO2 at 37° C. Furthermore, TGFβ2 (10 ng/ml; R&D SYSTEMS) was added and the cells were incubated for 24 hours under the condition of 5% CO2 at 37° C. The cells were then peeled off with ACCUMAX™ (Funakoshi), and aggresomes were measured with a flow cytometer (FACS Aria II (BD Biosciences, Franklin Lakes, N.J.) by using a ProteoStat® Aggresome Detection Kit: (EZN-51035-K100, Enabling Discovery in Life Science®)."}, "iHCEC": {"tested_on": "iHCEC", "test": "Western blot of apoptosis associated proteins after staurosporine stimulation", "type": "cell-based, human", "conditions": "15 minutes to 4 hours after staurosporine stimulation", "description": "Caspase 9, caspase 3 and poly(ADP-ribose) polymerase (PARP) were assessed by Western blot in iHCEC stimulated with a mitochondrial stress stimulant staurosporine (abcam, ab120056) in order to assess the involvement of mitochondrial failure in apoptosis.\nA stimulation was applied with staurosporine to induce a mitochondrial disorder to examine the chronological change.\nWestern blot was performed in accordance with the descriptions in Example 2. The following antibodies were used in addition to those used in Example 2."}, "[5]": {"conditions": "10 ng/ml TGFβ2, 3 and 6 hours, more significant in iFECD than iHCEC"}},
  "note": "Entries after “also recorded” stand apart in the source; their conditions may differ.",
  "data": [
    {"molecule": "Cc1cccc(-c2n[nH]cc2-c2ccc3ncccc3n2)n1", "note": "[ALK5 inhibitor, 2-(3-(6-methylpyridine-2-yl)-1H-pyrazole-4-yl)-1,5-naphthyridine]", "values": [
      {"measurement": "TGFβ2-induced increase of annexin V positive apoptotic cells, effect of inhibitor", "setting": "[1]", "result": "suppress apoptotic cells"}
    ]},
    {"molecule": "Cc1cccc(-c2nn(C(=S)Nc3ccccc3)cc2-c2ccnc3ccccc23)n1", "note": "[A-83-01, 3-(6-methyl-2-pyridinyl)-N-phenyl-4-(4-quinolinyl)-1H-pyrazole-1-carbothioamide]", "values": [
      {"measurement": "TGFβ2-induced increase of annexin V positive apoptotic cells, effect of inhibitor", "setting": "[1]", "result": "suppress apoptotic cells"}
    ]},
    {"molecule": "C/C=C(/C)C(=O)O[C@H]1C(C)=C2[C@H]([C@@H]1OC(=O)CCCCCCC)[C@@](C)(OC(C)=O)C[C@H](OC(=O)CCC)[C@@]1(O)[C@H]2OC(=O)[C@@]1(C)O", "note": "[TG, thapsigargin]", "values": [
      {"measurement": "cell damage / floating cells caused by the stimulant", "setting": "[2]", "result": "large amount of floating cells"}
    ]},
    {"molecule": "TGFβ2: transforming growth factor-β2 (R&D SYSTEMS) used to stimulate cells at 10 ng/ml", "values": [
      {"measurement": "percentage of annexin V positive apoptosis cells after stimulation", "setting": "[3]", "result": "12.3±0.5", "unit": "%"},
      {"measurement": "cell damage / floating cells caused by the stimulant", "setting": "[2]", "result": "damaged"},
      {"measurement": "expression of CHOP", "setting": "iHCEC and iFECD; 10 ng/ml TGFβ2, 3 and 6 hours", "result": "increases"},
      {"measurement": "expression of the chaperone GRP78", "setting": "iHCEC and iFECD; 10 ng/ml TGFβ2, 3 and 6 hours", "result": "increases"},
      {"measurement": "expression of ATF6", "setting": "iHCEC and iFECD; [5]", "result": "promotes expression"},
      {"measurement": "phosphorylation of PERK (ER stress sensor)", "setting": "iHCEC and iFECD; [5]", "result": "promotes phosphorylation"},
      {"measurement": "expression of chaperone GRP78 and stress sensor IRE1", "setting": "iHCEC and iFECD; 10 ng/ml TGFβ2, iFECD and normal cells, level high especially in iFECD", "result": "induced"},
      {"measurement": "increase of aggresomes (fluorescence intensity)", "setting": "[4]", "result": 1.11, "unit": "fold"},
      {"measurement": "percentage of annexin V positive apoptosis cells after stimulation", "setting": "[1]; after TGFβ stimulation (19.4±1.4% prior to stimulation), p<0.01", "result": "29.9±1.5", "unit": "%"}
    ]},
    {"molecule": "CN[C@@H]1C[C@H]2O[C@@](C)([C@@H]1OC)n1c3ccccc3c3c4c(c5c6ccccc6n2c5c31)C(=O)NC4", "note": "[staurosporine]", "values": [
      {"measurement": "activation of caspase 9, caspase 3 and PARP", "setting": "iHCEC", "result": "activate"}
    ]},
    {"molecule": "NC(=O)c1ccc(-c2nc(-c3ccc4c(c3)OCO4)c(-c3ccccn3)[nH]2)cc1", "note": "[SB431542, 4-[4-(1,3-benzodioxole-5-yl)-5-(2-pyridinyl)-1H-imidazole-2-yl]benzamide]", "values": [
      {"measurement": "floating cells induced by TG (thapsigargin), effect of inhibitor", "setting": "[2]; iFECD, TG stimulation, 24 hours", "result": "not cancelled"},
      {"measurement": "floating cells (cell damage) induced by TGFβ2, effect of inhibitor", "setting": "[2]; iFECD, TGFβ2 stimulation, 24 hours", "result": "cancelled"},
      {"measurement": "TGFβ2-induced increase of annexin V positive apoptotic cells, effect of inhibitor", "setting": "[1]", "result": "cancelled; also recorded: suppresses apoptosis"}
    ]}
  ]
}
